Results: the supplement of paper PMC10307832

Experiments:
Experiment in all cases: relative viability (nuclei count vs DMSO), 5 days (fraction); higher = more cells survive
[1] = test system: EMC-BAC-2
Procedure, shortened: (§1)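 Each reported value is a median over duplicate plates. It expresses relative viability: treated-well nuclei count divided by vehicle-well nuclei count. Lung cancer cell lines in 1536-well plates were dosed by pin tool a day after seeding, alone with one drug or with a fixed anchor-drug dose plus five library-drug doses (not always all listed) in √10 steps, and nuclei were counted after 5 days.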

[2] = test system: NCI-H1993
Procedure, shortened: as §1

[3] = test system: ABC-1
Procedure, shortened: as §1

[4] = test system: NCI-H1395
Procedure, shortened: as §1

[5] = test system: NCI-H358
Procedure, shortened: as §1

[6] = test system: HARA
Procedure, shortened: as §1

[7] = test system: LC-2-ad
Procedure, shortened: as §1

[8] = test system: ChaGo-K-1
Procedure, shortened: as §1

[9] = test system: NCI-H1944
Procedure, shortened: as §1

[10] = test system: NCI-H838
Procedure, shortened: as §1

[11] = test system: NCI-H1793
Procedure, shortened: as §1

[12] = test system: NCI-H2126
Procedure, shortened: as §1

[13] = test system: HCC-15
Procedure, shortened: as §1

[14] = test system: NCI-H23
Procedure, shortened: as §1

[15] = test system: NCI-H2405
Procedure, shortened: as §1

[16] = test system: HCC-78
Procedure, shortened: as §1

[17] = test system: HOP-62
Procedure, shortened: as §1

[18] = test system: HCC-366
Procedure, shortened: as §1

`CCN(CC)CCCCNc1ncc2cc(-c3cc(OC)cc(OC)c3)c(NC(=O)NC(C)(C)C)nc2n1` + NC(=O)Nc1cc(-c2cccc(F)c2)sc1C(=O)N[C@H]1CCCNC1 [AZD7762] (partner 0.2 µM) showed a relative viability ([1]; first compound 0.03162 µM) of 1.14, a relative viability ([1]; first compound 0.1 µM) of 1.3 and a relative viability ([1]; first compound 0.3162 µM) of 1.16. For the same compound, the relative viability ([1]; first compound 1 µM) was 1.07, the relative viability ([2]; first compound 0.01 µM) was 0.896 and the relative viability ([2]; first compound 0.03162 µM) was 0.708. For the same compound, the relative viability ([2]; first compound 0.1 µM) was 0.721, the relative viability ([2]; first compound 0.3162 µM) was 0.97 and the relative viability ([2]; first compound 1 µM) was 0.869. The relative viability ([3]; first compound 0.01 µM) was 0.766, the relative viability ([3]; first compound 0.1 µM) was 1.1 and the relative viability ([3]; first compound 0.3162 µM) was 0.795. It also gave a relative viability ([3]; first compound 1 µM) of 0.825, a relative viability ([4]; first compound 0.01 µM) of 0.402 and a relative viability ([4]; first compound 0.03162 µM) of 0.338. It also gave a relative viability ([4]; first compound 0.1 µM) of 0.422, a relative viability ([4]; first compound 0.3162 µM) of 0.392 and a relative viability ([4]; first compound 1 µM) of 0.309. The relative viability ([5]; first compound 0.01 µM) was 0.444, the relative viability ([5]; first compound 0.03162 µM) was 0.52 and the relative viability ([5]; first compound 0.1 µM) was 0.593. It also gave a relative viability ([5]; first compound 0.3162 µM) of 0.64, a relative viability ([5]; first compound 1 µM) of 0.395 and a relative viability ([6]; first compound 0.01 µM) of 0.245. For the same compound, the relative viability ([6]; first compound 0.03162 µM) was 0.376, the relative viability ([6]; first compound 0.1 µM) was 0.327 and the relative viability ([6]; first compound 0.3162 µM) was 0.277. It also gave a relative viability ([6]; first compound 1 µM) of 0.241, a relative viability ([7]; first compound 0.01 µM) of 0.878 and a relative viability ([7]; first compound 0.03162 µM) of 0.798. The relative viability ([7]; first compound 0.1 µM) was 0.92, the relative viability ([7]; first compound 0.3162 µM) was 0.932 and the relative viability ([7]; first compound 1 µM) was 0.815. It also gave a relative viability ([8]; first compound 0.01 µM) of 0.885, a relative viability ([8]; first compound 0.03162 µM) of 0.927 and a relative viability ([8]; first compound 0.1 µM) of 0.956. For the same compound, the relative viability ([8]; first compound 0.3162 µM) was 0.878, the relative viability ([8]; first compound 1 µM) was 0.853 and the relative viability ([9]; first compound 0.01 µM) was 0.474. The relative viability ([9]; first compound 0.03162 µM) was 0.86, the relative viability ([9]; first compound 0.1 µM) was 0.513 and the relative viability ([9]; first compound 0.3162 µM) was 0.505. It also gave a relative viability ([9]; first compound 1 µM) of 0.494, a relative viability ([10]; first compound 0.01 µM) of 0.734 and a relative viability ([10]; first compound 0.03162 µM) of 0.956. It also gave a relative viability ([10]; first compound 0.1 µM) of 0.992, a relative viability ([10]; first compound 0.3162 µM) of 1.1 and a relative viability ([10]; first compound 1 µM) of 0.76. It also gave a relative viability ([11]; first compound 0.01 µM) of 0.541, a relative viability ([11]; first compound 0.03162 µM) of 0.581 and a relative viability ([11]; first compound 0.1 µM) of 0.601. The relative viability ([11]; first compound 0.3162 µM) was 0.326, the relative viability ([11]; first compound 1 µM) was 0.319 and the relative viability ([12]; first compound 0.01 µM) was 0.976. For the same compound, the relative viability ([12]; first compound 0.03162 µM) was 1, the relative viability ([12]; first compound 0.1 µM) was 1.15 and the relative viability ([12]; first compound 0.3162 µM) was 1.13. The relative viability ([12]; first compound 1 µM) was 1.01, the relative viability ([13]; first compound 0.01 µM) was 1.22 and the relative viability ([13]; first compound 0.03162 µM) was 1.17. It also gave a relative viability ([13]; first compound 0.1 µM) of 1.22, a relative viability ([13]; first compound 0.3162 µM) of 1.37 and a relative viability ([13]; first compound 1 µM) of 1.12. The relative viability ([14]; first compound 0.01 µM) was 0.229, the relative viability ([14]; first compound 0.03162 µM) was 0.352 and the relative viability ([14]; first compound 0.1 µM) was 0.323. It also gave a relative viability ([14]; first compound 0.3162 µM) of 0.207, a relative viability ([14]; first compound 1 µM) of 0.172 and a relative viability ([15]; first compound 0.01 µM) of 0.792. For the same compound, the relative viability ([15]; first compound 0.03162 µM) was 0.734, the relative viability ([15]; first compound 0.1 µM) was 0.812 and the relative viability ([15]; first compound 0.3162 µM) was 0.803. It also gave a relative viability ([15]; first compound 1 µM) of 0.628, a relative viability ([16]; first compound 0.01 µM) of 0.394 and a relative viability ([16]; first compound 0.03162 µM) of 0.647. For the same compound, the relative viability ([16]; first compound 0.1 µM) was 0.726, the relative viability ([16]; first compound 0.3162 µM) was 0.745 and the relative viability ([16]; first compound 1 µM) was 0.549. The relative viability ([17]; first compound 0.01 µM) was 0.343, the relative viability ([17]; first compound 0.03162 µM) was 0.666 and the relative viability ([17]; first compound 0.1 µM) was 0.939. It also gave a relative viability ([17]; first compound 0.3162 µM) of 0.684, a relative viability ([17]; first compound 1 µM) of 0.431 and a relative viability ([18]; first compound 0.01 µM) of 0.256. The relative viability ([18]; first compound 0.03162 µM) was 0.462, the relative viability ([18]; first compound 0.1 µM) was 0.277 and the relative viability ([18]; first compound 0.3162 µM) was 0.289. The relative viability ([18]; first compound 1 µM) was 0.247.
